Test results: patent publication US20100173936A1 (priority 2008, published 2010)

Tests used:
Format in all cases: in vivo, human
urinary albumin = assay: Proteinuria, 24 hour urine collection, standard chemical protein analysis; conditions: versus pretreatment, in words (FIG. 1)
Method: Upon collection of each urine sample, the urine was quickly analyzed, and protein analysis was performed via a standard chemical analysis (Quest Laboratory, Scranton, Pa.).

[1] = Blood pressure in randomized crossover study, Type II diabetes mellitus with hypertension
Method: (§1) Subjects with hypertension requiring therapy were excluded from the study as one of the goals of the study was to measure the anti-inflammatory effects of an ACE inhibitor independently of its blood pressure lowering effects. Subjects on lipid lowering therapy (e.g., statin therapy) at the time of enrollment continued their therapy without change throughout the study. Written informed consent was obtained from all subjects. All subjects were evaluated at the time of enrollment. The subjects received nutritional counseling and were advised to record their weight and calorie counts weekly. A nutritionist was available for counseling throughout the study. Blood samples were drawn before and at the end of therapy at a similar time of day while subjects were fasting. […] After the initial 8 weeks of treatment, there was a 4 week washout period. The subjects then received in a crossover fashion the alternate pharmacological regimen. Allocation concealment was maintained until the end of the study. Pill counts were obtained at the end of the treatment period to determine compliance (13). Subjects were advised to self-administer half of the full dose during the initial 2 days of therapy, after which they were to take the full study dose at the same time each morning. The total study period was 22 weeks. […] Blood pressure was checked with at least three separate measurements that were taken approximately five minutes apart using an Omron sphygmomanometer.

[2] = HOMA-IR index of insulin resistance
From the text: Without wishing to be bound by any particular theory, it was thought that insulin resistance can play an important role in hyperglycemia in type 2 diabetic subjects, and can eventually induce the development of diabetic microangiopathy (20). Indeed, to achieve glycemic control and prevent these complications, several oral hypoglycemic agents that improve insulin resistance, such as thiazolidinediones and biguanides, have been developed and are currently available clinically (21,22). Furthermore, insulin resistance is proposed to play important roles in the pathogenesis of cardiovascular diseases (23,24), the most common cause of death in diabetic subjects. Therefore, a clinical and epidemiological evaluation was undertaken with the subjects described in Example 1 in order to evaluate insulin resistance simply and accurately in the individual diabetic subjects with hypertension. Many investigators have studied simple surrogate indices of insulin resistance in comparison with the index assessed by euglycemic-hyperinsulinemic clamp (clamp-IR); for example, fasting plasma insulin (25), homeostasis model assessment (HOMA) of insulin resistance (HOMA-IR) (26), and the fasting glucose-to-insulin ratio (27). […]

[3] = Brachial artery reactivity testing (BART), flow-mediated vasodilation, diabetic hypertensive subjects
From the text: Briefly, the subjects were positioned in the supine position with the arm in a comfortable position for imaging the brachial artery. A blood pressure cuff was then placed on the forearm, after which a baseline rest image was acquired. The brachial artery was imaged above the antecubital fossa in the longitudinal plane, and a segment with clear anterior and posterior intimal interfaces between the lumen and vessel wall was selected for continuous 2D gray-scale imaging. Blood flow velocity was estimated by time-averaging the pulsed Doppler velocity signal obtained from a mid-artery sample volume. […] After cuff deflation, the longitudinal image of the artery was recorded continuously from 30 seconds before to 2 minutes after cuff deflation. […] The diameter of the brachial artery was measured from longitudinal images in which the lumen-intima interface was visualized on both the near (anterior) and far (posterior) walls. Once the image for analysis was chosen, the boundaries for diameter measurements were identified manually with electronic calipers (Medical Imaging Application Vascular Tools, Coralville, Iowa), and the average diameter was determined from at least 3 different diameter measurements determined along a segment of the vessel. Brachial artery diameter was measured at the same time in the cardiac cycle by use of electrocardiogram (ECG) gating during image acquisition. […]

[4] = Adverse events in the diabetic hypertensive crossover study (cough, angioedema, potassium/creatinine, hypotension)
From the text: as §1, with “subjects.” for “subjects. All subjects were evaluated at the time of enrollment. The subjects received nutritional counseling and were advised to record their weight and calorie counts weekly. A nutritionist was available for counseling throughout the study. Blood samples were drawn before and at the end of therapy at a similar time of day while subjects were fasting.”

leptin = assay: Serum leptin enzyme immunoassay (EIA)
Method: (§2) An aliquot of each sample was then drawn, and an enzyme immunoassay (EIA; Cayman Chemical, Ann Arbor, Mich.) for serum adiponectin and leptin was performed on each sample in triplicate according to well-established protocols (45). A total of 50 μl of serum were used for the analysis. The levels of total serum adiponectin and leptin were determined on a plate reader at an optical density of 420 nm. No interference by quinapril or its metabolites was found in any of the assays.

PAI-1 = assay: Serum soluble PAI-1 ELISA in subjects with metabolic syndrome; conditions: after four weeks of therapy, quinapril 20 mg/day, alpha lipoic acid 300 mg/day, from baseline
Method: […] Blood was collected at these time periods, and serum levels of soluble PAI-1 and VCAM-1 were determined using an enzyme-linked immunosorbent assay (ELISA). Further, endothelial function in each of the subjects was also determined by flow mediated dilation (FMD) of the brachial artery, utilizing the high resolution ultrasound technique described herein above.

glycosylated hemoglobin = assay: Glycosylated hemoglobin in the diabetic hypertensive crossover study
LDL = LDL oxidation lag time, CuSO4 assay on LDL isolated from treated subjects
From the text: Although, the mechanisms of this damage have yet to be clearly established and may involve the inactivation of nitric oxide (NO) by oxygen-derived free radicals such as superoxide (33), it is clear that this inflammatory response affects the gene expression of regulatory molecules, such as vascular cell adhesion molecule and tumor necrosis factor-alpha (34-36), which in turn promote foam cell formation. In this regard, a reduction in NO levels along with an increase in ox-LDL may function as immunomodulators of the atherosclerotic process (37) and, indeed, recent studies imply that ox-LDL stimulates an immunological response through the formation of autoantibodies, resulting in further damage to the endothelium and acceleration of the atherosclerotic process (38,39). This antibody response may represent a marker for the extent of atherosclerosis seen in individuals. […] The LDL was then oxidized to ox-LDL by an in vitro assay utilizing CuSO4 (52). The lag time indicating the susceptibility of the LDL to oxidize was measured using a spectrophotometer at […] (42). Values were performed in triplicate.

adiponectin = assay: Serum adiponectin enzyme immunoassay (EIA)
Method: as §2

[5] = diabetic hypertensive subjects, quinapril 40 mg/day, alpha lipoic acid 600 mg/day, 8 weeks
[6] = serum, diabetic hypertensive subjects

With `CCOC(=O)[C@H](CCc1ccccc1)N[C@@H](C)C(=O)N1Cc2ccccc2C[C@H]1C(=O)O` [Quinapril, quinapril] the “ratio of urinary albumin to creatinine” value (urinary albumin) was “reduced significantly”, the urinary albumin (urinary albumin) was “reduced significantly” and the “Diastolic BP” value [1, 5] was 77.9 ± 10.0 mmHg. For the same compound, the “Systolic BP” value ([1]; diabetic hypertensive subjects, quinapril 40 mg/day, alpha lipoic acid 600 mg/day, 8 weeks, mean ± SD) was 133.4 ± 11.7 mmHg, the “change in systolic and diastolic blood pressure after the follow-up period” value ([1]; versus pretreatment, in words) was “significant reduction” and the serum HOMA-IR ([2]; end of treatment, pretreatment 3.01±0.33 U/ml) was 1.83 ± 0.25. For the same compound, the “reduction in HOMA-IR from pretreatment baseline” value ([2]; in vivo) was 40%, the “increase in flow mediated dilation of the brachial artery as compared to baseline” value ([3]; at 24 weeks as printed) was 59% and the “flow mediated dilation of the brachial artery” value ([3]; post-treatment, pretreatment 3.86±0.55 percent) was 6.02±0.80%. For the same compound, the “hypotension (systolic BP less than 100 mm Hg)” value ([4]; during the study) was “No subject”, the “rise in serum potassium or creatinine of greater than 20 percent” value ([4]; number of subjects affected) was 1 out of 40 and the incidence of cough ([4]; quinapril 40 mg/day, alpha lipoic acid 600 mg/day) was 14%. For the same compound, the angioedema ([4]; throughout the study) was “No angioedema”, the Leptin (leptin; [6]) was 51% of % of pretreatment and the “serum levels of leptin” value (leptin; versus pretreatment, in words) was “significantly reduced”. The “reduction of serum PAI-1 levels” value (PAI-1) was 22%, the “Glycosylated Hgb” value (glycosylated hemoglobin; [5]) was 7.6 ± 1.5% and the “change in glycosylated hemoglobin (Hgb)” value (glycosylated hemoglobin; from pretreatment and between the two treatment arms, in words) was “no significant change”. For the same compound, the “increase of lag time of LDL oxidation from pretreatment” value (LDL; human, in vivo) was 23%, the “lag time of LDL oxidation, Post-treatment” value (LDL; post-treatment) was 71.0 ± 13.9 s and the “serum levels of adiponectin” value (adiponectin; over pretreatment, in words) was “significantly increased”. The Adiponectin (adiponectin; [6]) was 122% of % of pretreatment.
